From ChEMBL document CHEMBL5131429, “Synthesis and antifungal evaluation of phenol-derived bis(indolyl)methanes combined with FLC against Candida albicans” (Bioorg Med Chem Lett, 2022) come the findings set out here.

In brackets after ≈: the same amount, converted by molar mass. Activity calls are given as the source filed them. The calls are words filed in the database; no cut-off is given here.

Data set [1] concerns Candida albicans. Nature of the data set: Antifungal activity against Candida albicans CA558 by microdilution method. The class given is functional.
The test system of data set [2] is Candida albicans. Nature of the data set: Antifungal activity against Candida albicans ATCC14053 by microdilution method. The class given is functional.
Data set [3] relates to Candida albicans. Nature of the data set: Antifungal activity against Candida albicans CA5408 by microdilution method. In kind it is functional.
Data set [4] is described as follows: Cytotoxicity against PBMC (unknown origin) by MTT assay. In kind it is toxicity, cell-based.
For data set [5], the system named is Candida albicans. In words: Antifungal activity against Candida albicans CA3511 by microdilution method. The class given is functional.
Data set [6] relates to Candida albicans. Nature of the data set: Induction of mitochondrial membrane potential loss in Candida albicans at 1 ug/ml after 16 hrs by JC-1 staining based fluorescence microplate reader. The class given is functional, organism-based. Particulars: dose 1.0 µg/ml.
Data set [7] can be described thus: Cytotoxicity against human 16HBE by MTS assay. In kind it is toxicity, cell-based. Particulars: 16HBE14o- cells.
The test system of data set [8] is Candida albicans. Nature of the data set: Antifungal activity against Candida albicans CA800 by microdilution method. In kind it is functional.
For data set [9], the system named is Candida albicans. In words: Antifungal activity against Candida albicans CA23 by microdilution method. In kind it is functional.
In data set [10] the test system is Candida albicans. Nature of the data set: Antifungal activity against Candida albicans CA602 by microdilution method. The class given is functional.
The subject of data set [11] is Candida albicans. Nature of the data set: Antifungal activity against Candida albicans CA187 by microdilution method. The class given is functional.
Data set [12] concerns Candida albicans. Nature of the data set: Antifungal activity against Candida albicans CA3816 by microdilution method. The class given is functional.
Data set [13] has as its system Candida albicans. Nature of the data set: Antifungal activity against Candida albicans SC5314 by microdilution method. In kind it is functional.
Data set [14] deals with Candida albicans. Nature of the data set: Antifungal activity against Candida albicans CA23 assessed as fractional inhibitory concentration index in presence of fluconazole by microdilution method. In kind it is functional.
For data set [15], the system named is Candida albicans. Nature of the data set: Antifungal activity against Candida albicans SC5314 in presence of fluconazole by microdilution method. In kind it is functional.
Data set [16] relates to Candida albicans. In words: Antifungal activity against Candida albicans CA23 in presence of fluconazole by microdilution method. In kind it is functional.
Data set [17] has as its system Candida albicans. In words: Antifungal activity against Candida albicans SC5314 assessed as fractional inhibitory concentration index in presence of fluconazole by microdilution method. In kind it is functional.

With `OC(Cn1cncn1)(Cn1cncn1)c1ccc(F)cc1F` [FLUCONAZOLE], the MIC80 against Candida albicans [1], against Candida albicans [2], in the data set with Candida albicans [3], against Candida albicans [5], against Candida albicans [8] and against Candida albicans [9] was over 200 mg/L in each case. The MIC80 is over 200 mg/L with Candida albicans [10], over 200 mg/L in the data set with Candida albicans [11], over 200 mg/L in the data set with Candida albicans [12] and 5.79 mg/L (≈ 18.9 µM) against Candida albicans [13]. Moreover, the cytotoxic concentration (CC50) in [4] is 676 mg/L (≈ 2210 µM); in [7] it was over 1000 mg/L. Besides, in the data set on Candida albicans [6], the outcome was Active.
On to `Cc1ccc(O)c(C(c2c[nH]c3ccccc23)c2c[nH]c3ccccc23)c1`, for which the “fractional inhibitory concentration index (FICI)” value turned out to be 0.02 in the data set on Candida albicans [14] and 0.33 with Candida albicans [17]. Besides, the MIC80 in the data set with Candida albicans [15] is 4.28 mg/L; in the data set with Candida albicans [16], 5.83 mg/L; with Candida albicans [9] it was over 200 mg/L; in the data set with Candida albicans [13], 23.2 mg/L (≈ 65.9 µM).
In the case of `Oc1ccc(Br)cc1C(c1c[nH]c2ccccc12)c1c[nH]c2ccccc12`, the “fractional inhibitory concentration index (FICI)” value in the data set with Candida albicans [14] was 0.02; with Candida albicans [17], 0.13. Moreover, the MIC80 with Candida albicans [15] was 3.58 mg/L; in the data set with Candida albicans [16], 5.81 mg/L; in the data set on Candida albicans [9] it was over 200 mg/L; against Candida albicans [13], over 200 mg/L.
For `Oc1cc(F)c(Br)cc1C(c1c[nH]c2ccccc12)c1c[nH]c2ccccc12`, the “fractional inhibitory concentration index (FICI)” value with Candida albicans [14] is 0.02; in the data set with Candida albicans [17], 0.2. Also, the MIC80 in the data set with Candida albicans [15] is 0.82 mg/L; with Candida albicans [16] it was 5.95 mg/L; against Candida albicans [9] it was over 200 mg/L; against Candida albicans [13], 4.97 mg/L (≈ 11.4 µM).
For the molecule `O=[N+]([O-])c1ccc(O)c(C(c2c[nH]c3ccccc23)c2c[nH]c3ccccc23)c1`, in the data set with Candida albicans [14], the “fractional inhibitory concentration index (FICI)” value came to 0.18. Also, the MIC80 with Candida albicans [15] is 25.6 mg/L; in the data set with Candida albicans [16] it was 29.3 mg/L; with Candida albicans [9] it was 180 mg/L (≈ 471 µM); in the data set with Candida albicans [13] it was 0.69 mg/L (≈ 1.8 µM).
In the case of `Oc1c(Cl)cccc1C(c1c[nH]c2ccccc12)c1c[nH]c2ccccc12`, the results for the “fractional inhibitory concentration index (FICI)” value in the data set on Candida albicans [14] and in the data set on Candida albicans [17] were 0.02 and 0.05, respectively. Moreover, the MIC80 with Candida albicans [15] is 1.31 mg/L; with Candida albicans [16], 5.82 mg/L; with Candida albicans [9] it was over 200 mg/L; against Candida albicans [13], over 200 mg/L.
Turning to `Oc1ccc(F)cc1C(c1c[nH]c2ccccc12)c1c[nH]c2ccccc12`, the “fractional inhibitory concentration index (FICI)” value is listed as 0.02 in the data set on Candida albicans [14] and 0.04 in the data set on Candida albicans [17]. Besides, the MIC80 in the data set on Candida albicans [15] is 0.98 mg/L; with Candida albicans [16] it was 5.92 mg/L; in the data set with Candida albicans [9] it was over 200 mg/L; against Candida albicans [13] it was over 200 mg/L.
Take `Oc1cc(F)ccc1C(c1c[nH]c2ccccc12)c1c[nH]c2ccccc12`: the “fractional inhibitory concentration index (FICI)” value with Candida albicans [14] came out at 0.02; with Candida albicans [17], 0.58. Moreover, the MIC80 was 15.5 mg/L with Candida albicans [15], 7.4 mg/L in the data set on Candida albicans [16], over 200 mg/L against Candida albicans [9] and over 200 mg/L against Candida albicans [13].
On to `COc1ccc(C(c2c[nH]c3ccccc23)c2c[nH]c3ccccc23)c(O)c1`, for which the “fractional inhibitory concentration index (FICI)” value in the data set on Candida albicans [14] turned out to be 0.18; in the data set on Candida albicans [17], 0.58. The MIC80 in the data set on Candida albicans [15] came to 1.01 mg/L; in the data set with Candida albicans [16], 5.79 mg/L; against Candida albicans [9], 32.7 mg/L (≈ 88.9 µM); with Candida albicans [13], 1.85 mg/L (≈ 5.02 µM).
`Oc1c(Br)cc(Br)cc1C(c1c[nH]c2ccccc12)c1c[nH]c2ccccc12`: the “fractional inhibitory concentration index (FICI)” value in the data set with Candida albicans [14] was determined as 0.02; with Candida albicans [17], 0.11. Moreover, the MIC80 with Candida albicans [15] is 2.85 mg/L; in the data set on Candida albicans [16], 6.01 mg/L; with Candida albicans [9], over 200 mg/L; in the data set with Candida albicans [13] it was over 200 mg/L.
Take `Cc1ccc(C(c2c[nH]c3ccccc23)c2c[nH]c3ccccc23)c(O)c1`: the “fractional inhibitory concentration index (FICI)” value with Candida albicans [14] is reported as 0.02; in the data set on Candida albicans [17], 0.14. For the same molecule, the MIC80 with Candida albicans [15] was 3.67 mg/L; in the data set with Candida albicans [16], 5.75 mg/L; against Candida albicans [9] it was 37 mg/L (≈ 105 µM); in the data set with Candida albicans [13], over 200 mg/L.
Regarding `Oc1c(Cl)cc(Cl)cc1C(c1c[nH]c2ccccc12)c1c[nH]c2ccccc12`, the “fractional inhibitory concentration index (FICI)” value in the data set on Candida albicans [14] and with Candida albicans [17] was 0.02 throughout. In addition, the MIC80 is 0.55 mg/L in the data set with Candida albicans [15], 5.88 mg/L in the data set with Candida albicans [16], over 200 mg/L in the data set with Candida albicans [9] and over 200 mg/L in the data set with Candida albicans [13].
For the molecule `CN(C)c1ccc(C(c2c[nH]c3ccccc23)c2c[nH]c3ccccc23)c(O)c1`, the “fractional inhibitory concentration index (FICI)” value in the data set with Candida albicans [14] came out at 0.24; in the data set on Candida albicans [17], 2.57. Further, the MIC80 in the data set on Candida albicans [15] stood at 0.94 mg/L; with Candida albicans [16], 5.76 mg/L; against Candida albicans [9], 24 mg/L (≈ 62.8 µM); in the data set on Candida albicans [13] it was 0.37 mg/L (≈ 0.97 µM).
Consider `Oc1ccc(Cl)cc1C(c1c[nH]c2ccccc12)c1c[nH]c2ccccc12`, for which the “fractional inhibitory concentration index (FICI)” value was 0.1 with Candida albicans [14] and 0.12 in the data set on Candida albicans [17]. Also, the MIC80 in the data set with Candida albicans [15] was 3.27 mg/L; with Candida albicans [16], 31.8 mg/L; against Candida albicans [9], over 200 mg/L; with Candida albicans [13], over 200 mg/L.
With `Oc1c(Cl)cc(Br)cc1C(c1c[nH]c2ccccc12)c1c[nH]c2ccccc12`, the “fractional inhibitory concentration index (FICI)” value was 0.36 with Candida albicans [14] and 0.04 in the data set on Candida albicans [17]. Besides, the MIC80 was 0.9 mg/L in the data set on Candida albicans [15], 6.59 mg/L in the data set with Candida albicans [16], 18.3 mg/L (≈ 40.6 µM) in the data set on Candida albicans [9] and over 200 mg/L against Candida albicans [13].
For `Oc1ccc(O)c(C(c2c[nH]c3ccccc23)c2c[nH]c3ccccc23)c1`, the “fractional inhibitory concentration index (FICI)” value came to 0.98 with Candida albicans [14] and 0.07 with Candida albicans [17]. In addition, the MIC80 with Candida albicans [15] worked out at 1.05 mg/L; in the data set with Candida albicans [16] it was 5.7 mg/L; against Candida albicans [9], 5.91 mg/L (≈ 16.7 µM); with Candida albicans [13], 32.1 mg/L (≈ 90.5 µM).
On to `Oc1ccccc1C(c1c[nH]c2ccccc12)c1c[nH]c2ccccc12`, for which the figures for the “fractional inhibitory concentration index (FICI)” value in the data set on Candida albicans [14] and in the data set on Candida albicans [17] were 0.03 and 0.12, respectively. For the same molecule, the MIC80 with Candida albicans [15] is 3.22 mg/L; in the data set with Candida albicans [16] it was 6.07 mg/L; in the data set on Candida albicans [9], over 200 mg/L; in the data set with Candida albicans [13], over 200 mg/L.
